From article PMC3395435 (Biopolymers, 2012)

What was measured:
Swiss Webster mice [1] = conditions: mouse, in vivo
rat vas deferens = conditions: cited from earlier work
Swiss Webster mice [2] = conditions: mouse, in vivo; cited from earlier work
[3] = type: physicochemical; conditions: pH 7.5

## ω-conotoxin GVIA
Swiss Webster mice [1]
  duration of shaking syndrome: maintained for a long time
  shaking syndrome (persistent body tremor): exhibited the shaking syndrome
Rat vas deferens
  Biological activity (twitch responses): 10 nM
Swiss Webster mice [2]
  duration of shaking syndrome, previous work: maintained for a long time in a dose-dependent manner
  shaking syndrome, previous work: induce shaking syndrome in mice
[3]
  natively folded peptide retained at the steady state: about 60%
